Experimental data: patent US12503448B2, “Antibacterial and antiparasitic quinoxaline-2,3-diamine derivatives” (University College Cardiff Consultants Limited, priority 2019, dated 2025)
pEC50: −log10 of the molar value. Where two headings read alike, the source gives them in different places.

Tests used:
S. mansoni schistosomula = test: 72 hours schistosomula drug screen; assay type: cell-based, Schistosoma mansoni; conditions: for Selectivity Index Schistosomula: HepG2 CC50 over schistosomula EC50; for pEC50: Schistosoma mansoni, schistosomula, 72 hour culture
Method: Biological Screening 72 Hours Schistosomula Drug Screen […] G. Colley, […], Schistosoma mansoni: simplified method for the production of schistosomules., Exp. Parasitol. 35 (1974) 44-51. Newly transformed schistosomula were prepared for 72 hour high throughput screening (HTS) in 384-well black-sided microtiter plates (Perkin Elmer, MA, USA) as described in M. Nur-e-alam, M. Yousaf, […]. Bari, H. A. Ghabbour, […]. Ho, A. J. […], Neoclerodane Diterpenoids from […], Teucrium […]. Nat. […] The data obtained in this manner is shown in Table 1 in the columns labelled “Phenotype”, “Motility” and “Schistosomula average”.

MTT assay on HepG2 cells = assay type: cell-based; conditions: human
Method: MTT Assay on HepG2 Cells Human Hepatocyte Carcinoma (HepG2) cells (85011430, Sigma Aldrich) were used to assess the overt toxicity of these anti-infective compounds. […] A negative control (1% v/v Triton X-100; X100, Sigma-Aldrich) was also included in each screen. After addition of compounds, each plate was then incubated for a further 20 hrs before application of MTT reagent (prepared as described in Nur-[…], Bari A, Ghabbour […], Hoffmann […] Nat Prod. 2017 Jun. 23; 80(6):1900-1908 for the assessment of compound cytotoxicity using the MTT assay. […] The plate was then further incubated for 4 hrs. After incubation, each plate was blotted dry under the laminar flow to remove the MTT treated culture media. A 100 μl DMSO: isopropanol (1:1) solution was then added to each well and the plate was then subsequently incubated for 10 minutes at 37° C. Following incubation, each plate was shaken again and then absorbance measured at 570 nm. The absorbance reading was corrected based on the average value of the wells used as blank (no cells). […] The data obtained in this manner is shown in Table 1 in the columns labelled “HepG2”. […] The selectivity indexes for schistosomula and adult worms are shown in the final two columns in Table 1.

S. mansoni adult worms = test: Adult worm drug screen (WHO scoring, WormassayGP2); assay type: cell-based, Schistosoma mansoni; conditions: for Selectivity Index Adult: HepG2 CC50 over adult worm EC50; for pEC50: Schistosoma mansoni, adult worms
Excerpt: Mice (MF-1 mice, Harlan, UK), infected 7 weeks previously with 180 cercaria, were euthanised with an intraperitoneal injection of phenobarbital/heparin solution. Adult worms were recovered by perfusion of the portal system and subjected to drug screening as previously described in Padalino G, Ferla S, Brancale A, Chalmers I W, Hoffmann K F. Int J Parasitol Drugs Drug Resist. 2018 December; 8(3):559-570; in Whiteland H L, Chakroborty A, Forde-Thomas J E, Crusco A, Cookson A, Hollinshead J, Fenn C A, Bartholomew B, Holdsworth P A, Fisher M, Nash R J, Hoffmann K F. Int J Parasitol Drugs Drug Resist. 2018 December; 8(3):465-474; and in Crusco A, Bordoni C, Chakroborty A, Whatley K C L, Whiteland H, Westwell A D, Hoffmann K F. Eur J Med Chem. 2018 May 25; 152:87-100. The data obtained in this manner is shown in Table 1 in the columns labelled “Adult worm”.
Regarding the quantification of drug treatment on adult worms (e.g. decreased activity, paralysis or sluggishness), two different approaches were used, as described below. Where egg deposition was noticed, eggs were removed and counted using a Sedgewick rafter slide.
Adult worms were scored using the standardized microscopic WHO-TDR scoring system previously described by Ramirez, B., Bickle, Q., Yousif, F., Fakorede, F., Mouries, M.-A., Nwaka, S. in Schistosomes: Challenges in compound screening, Expert Opin Drug Discov. 2007 October; 2(s1): S53-61. This scoring system (0-4) identifies changes in worm movement and is defined according to the following scoring matrix: 0=no movement, 1=no movement with visible gut peristalsis, 2=minimal movement (occasional movement from anterior or posterior end of the worm), 3=slow continuous movement and 4=normal movement.
A digital image processing-based system was also used to assess parasite motility after drug treatment and is a modification of methods previously described by Marcellino C., Gut, J., Lim, K., Singh R., McKerrow, L. and Sakanari, J. WormAssay: a novel computer application for whole-plate motion-based screening of macroscopic parasites. PLoS Negl Trop Dis. 2012 January:6(1):e1494. This allowed for objective verification of the WHO method described above. The data obtained with this quantification method is shown in Table 1 in the columns labelled “Adult worm”.

H3K4 methylation = test: Histone extraction and detection of global H3K4 methylation in treated adult worms; assay type: cell-based, Schistosoma mansoni; conditions: sub-lethal concentration 0.0024 μM, male and female adult worms

| pEC50 (S. mansoni schistosomula; read-out: EC50 Motility) | pEC50 (S. mansoni schistosomula; read-out: EC50 Phenotype) | pEC50 (S. mansoni adult worms) | SMILES | Selectivity Index Schistosomula (S. mansoni schistosomula) | CC50 at 24 h (MTT assay on HepG2 cells) [nM] | Selectivity Index Adult (S. mansoni adult worms) | global H3K4 methylation compared to the negative control (DMSO) (H3K4 methylation) |
| --- | --- | --- | --- | --- | --- | --- | --- |
| 5.85 | 5.67 | 6.74 | O=[N+]([O-])c1ccc2nc(Nc3ccc(F)cc3)c(Nc3ccc(F)cc3)nc2c1 [Compound 6, N^2, N^3-bis(4-fluorophenyl)-6-nitroquinoxaline-2,3-diamine] | 12 | 22000 | 121 | – |
| 6.37 | 6.43 | 8.19 | O=[N+]([O-])c1ccc2nc(Nc3cc(F)cc(C(F)(F)F)c3)c(Nc3cc(F)cc(C(F)(F)F)c3)nc2c1 [Compound 8, N^2, N^3-bis(3-fluoro-5-(trifluoromethyl)phenyl)-6-nitroquinoxaline-2,3-diamine] | 25 | – | 1549 | significant % decrease |
